{"source": "patent US6472348B1", "about": "“Pyridone derivatives and herbicides” (Kumiai Chemical Industry Co., Ltd., priority 1996, dated 2002);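 as to Herbicidal effects Ci: grade of growth control; 5 = at least 90%; 4 = 70 to 90%; 3 = 50 to 70%; 2 = 30 to 50%; 1 = 10 to 30%; 0 = under 10%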;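 as to Herbicidal effects Ec: grade of growth control; 5 = at least 90%; 4 = 70 to 90%; 3 = 50 to 70%; 2 = 30 to 50%; 1 = 10 to 30%; 0 = under 10%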", "format_in_all_cases": "in vivo", "key": {"barnyardgrass (Ec) [1]": {"test_system": "barnyardgrass (Ec)", "assay": "Test Example 1: herbicidal effects by paddy field soil treatment;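 also: grade of growth control; 5 = at least 90%; 4 = 70 to 90%; 3 = 50 to 70%; 2 = 30 to 50%; 1 = 10 to 30%; 0 = under 10%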", "settings": "100 g of the active ingredient per 10 ares, 21st day after the application, index 0-5 of Table 47", "procedure,_shortened": "(§1)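 Flooded paddy-soil pots (3 cm water) sown after puddling/leveling; treatment 100 g a.i./10 ares; greenhouse culture; herbicidal effect rated visually on a scoring scale at 21 d post-application.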"}, "bulrush (Sc)": {"test_system": "bulrush (Sc)", "assay": "Test Example 1: herbicidal effects by paddy field soil treatment", "settings": "100 g of the active ingredient per 10 ares, 21st day after the application, index 0-5 of Table 47", "procedure,_shortened": "as §1"}, "monochoria (Mo)": {"test_system": "monochoria (Mo)", "assay": "Test Example 1: herbicidal effects by paddy field soil treatment", "settings": "100 g of the active ingredient per 10 ares, 21st day after the application, index 0-5 of Table 47", "procedure,_shortened": "as §1"}, "Digitaria ciliaris (Di)": {"test_system": "Digitaria ciliaris (Di)", "assay": "Test Example 2: herbicidal effects by upland field soil treatment", "settings": "100 g of the active ingredient per 10 ares, evaluated on the 21st day after application", "excerpt": "(§2) (Test on Herbicidal Effects by Upland Field Soil Treatment)"}, "barnyardgrass (Ec) [2]": {"test_system": "barnyardgrass (Ec)", "assay": "Test Example 2: herbicidal effects by upland field soil treatment", "settings": "100 g of the active ingredient per 10 ares, evaluated on the 21st day after application", "excerpt": "as §2"}, "[3]": {"test_system": "common lambsquarters (Ch)", "assay": "Test Example 2: herbicidal effects by upland field soil treatment", "settings": "100 g of the active ingredient per 10 ares, evaluated on the 21st day after application", "excerpt": "as §2"}, "pale smartweed (Po) [4]": {"test_system": "pale smartweed (Po)", "assay": "Test Example 2: herbicidal effects by upland field soil treatment", "settings": "100 g of the active ingredient per 10 ares, evaluated on the 21st day after application", "excerpt": "as §2"}, "rice flatsedge (Ci) [5]": {"test_system": "rice flatsedge (Ci)", "assay": "Test Example 2: herbicidal effects by upland field soil treatment", "settings": "100 g of the active ingredient per 10 ares, evaluated on the 21st day after application", "excerpt": "as §2"}, "slender amaranth (Am) [6]": {"test_system": "slender amaranth (Am)", "assay": "Test Example 2: herbicidal effects by upland field soil treatment", "settings": "100 g of the active ingredient per 10 ares, evaluated on the 21st day after application", "excerpt": "as §2"}, "Diaitaria ciliaris (Di) [7]": {"test_system": "Diaitaria ciliaris (Di)", "assay": "Test Example 3: herbicidal effects by upland field foliage treatment", "design": "scale not given here", "settings": "100 g active ingredient per 10 ares, evaluated 14th day after treatment", "procedure,_shortened": "(§3)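 Pot culture: sand, 120 cm^2 surface; seeds sown, soil-covered, greenhouse 2 weeks. Foliage treatment applied at that stage. Herbicidal effect rated by standard scale, day 14 post-treatment.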"}, "barnyardgrass (Ec) [8]": {"test_system": "barnyardgrass (Ec)", "assay": "Test Example 3: herbicidal effects by upland field foliage treatment", "design": "scale not given here", "settings": "100 g active ingredient per 10 ares, evaluated 14th day after treatment", "procedure,_shortened": "as §3"}, "[9]": {"test_system": "common lambsquarters (Ch)", "assay": "Test Example 3: herbicidal effects by upland field foliage treatment", "design": "scale not given here", "settings": "100 g active ingredient per 10 ares, evaluated 14th day after treatment", "procedure,_shortened": "as §3"}, "pale smartweed (Po) [10]": {"test_system": "pale smartweed (Po)", "assay": "Test Example 3: herbicidal effects by upland field foliage treatment", "design": "scale not given here", "settings": "100 g active ingredient per 10 ares, evaluated 14th day after treatment", "procedure,_shortened": "as §3"}, "rice flatsedge (Ci) [11]": {"test_system": "rice flatsedge (Ci)", "assay": "Test Example 3: herbicidal effects by upland field foliage treatment", "design": "scale not given here", "settings": "100 g active ingredient per 10 ares, evaluated 14th day after treatment", "procedure,_shortened": "as §3"}, "slender amaranth (Am) [12]": {"test_system": "slender amaranth (Am)", "assay": "Test Example 3: herbicidal effects by upland field foliage treatment", "design": "scale not given here", "settings": "100 g active ingredient per 10 ares, evaluated 14th day after treatment", "procedure,_shortened": "as §3"}, "cotton (Go)": {"test_system": "cotton (Go)", "assay": "Test Example 4: crop plant selectivity by upland field soil treatment (cotton), phytotoxicity", "design": "scale not given here", "settings": "evaluated 21st day after application", "procedure,_shortened": "(§4)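 Sand-filled pots, seeds sown then soil-covered; soil application; greenhouse culture; visual scoring of weed control and cotton injury at day 21 post-application.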"}, "Diaitaria ciliaris (Di) [13]": {"test_system": "Diaitaria ciliaris (Di)", "assay": "Test Example 4: crop plant selectivity by upland field soil treatment (cotton), herbicidal effects", "settings": "evaluated 21st day after application", "protocol": "(§5) (Test on Crop Plant Selectivity by Upland Field Soil Treatment)\nIn a plastic pot (surface area: 600 cm^2) filled with sand, cotton (Go), Diaitaria ciliaris (Di), green foxtail (Se), pale smartweed (Po), slender amaranth (Am), common lambsquarters (Ch) and China jute (Ab) were sown and covered with soil. […] The plants were then cultured in a green house, and the evaluation of the herbicidal effects and phytotoxicity was conducted on the 21st day after the application in accordance with the standards as identified in Table 47. Symbol—represents “not tested”."}, "China jute (Ab) [14]": {"test_system": "China jute (Ab)", "assay": "Test Example 4: crop plant selectivity by upland field soil treatment (cotton), herbicidal effects", "design": "scale not given here", "settings": "evaluated 21st day after application", "procedure,_shortened": "as §4"}, "[15]": {"test_system": "common lambsquarters (Ch)", "assay": "Test Example 4: crop plant selectivity by upland field soil treatment (cotton), herbicidal effects", "design": "scale not given here", "settings": "evaluated 21st day after application", "procedure,_shortened": "as §4"}, "green foxtail (Se) [16]": {"test_system": "green foxtail (Se)", "assay": "Test Example 4: crop plant selectivity by upland field soil treatment (cotton), herbicidal effects", "design": "scale not given here", "settings": "evaluated 21st day after application", "procedure,_shortened": "as §4"}, "pale smartweed (Po) [17]": {"test_system": "pale smartweed (Po)", "assay": "Test Example 4: crop plant selectivity by upland field soil treatment (cotton), herbicidal effects", "design": "scale not given here", "settings": "evaluated 21st day after application", "procedure,_shortened": "as §4"}, "slender amaranth (Am) [18]": {"test_system": "slender amaranth (Am)", "assay": "Test Example 4: crop plant selectivity by upland field soil treatment (cotton), herbicidal effects", "design": "scale not given here", "settings": "evaluated 21st day after application", "procedure,_shortened": "as §4"}, "soybean (Gl)": {"test_system": "soybean (Gl)", "assay": "Test Example 6: crop plant selectivity by upland field soil treatment (soybean), phytotoxicity", "design": "scale not given here", "settings": "dose 1.6 g ai/10a, 21st day after application", "procedure,_shortened": "(§6)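 Pre-emergence soil treatment; sand-filled pots, seeds sown then soil-covered; greenhouse culture; visual rating of weed control and soybean injury on day 21 post-application per standard scale.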"}, "Diaitaria ciliaris (Di) [19]": {"test_system": "Diaitaria ciliaris (Di)", "assay": "Test Example 6: crop plant selectivity by upland field soil treatment (soybean), herbicidal effects", "settings": "dose 1.6 g ai/10a, 21st day after application", "protocol": "as §5\n(§7) In a plastic pot (surface area: 600 cm^2) filled with sand, soybean (Gl), Diaitaria ciliaris (Di), green foxtail (Se), Johnsongrass (So), pale smartweed (Po), slender amaranth (Am), common lambsquarters (Ch) and China jute (Ab) were sown and covered with soil. […] The plants were then cultured in a green house, and the evaluation of the herbicidal effects and phytotoxicity was conducted on the 21st day after the application in accordance with the standards as identified in Table 47. Symbol—represents “not tested”."}, "Johnsongrass (So)": {"test_system": "Johnsongrass (So)", "assay": "Test Example 6: crop plant selectivity by upland field soil treatment (soybean), herbicidal effects", "settings": "dose 1.6 g ai/10a, 21st day after application", "protocol": "as §5, §7"}, "China jute (Ab) [20]": {"test_system": "China jute (Ab)", "assay": "Test Example 6: crop plant selectivity by upland field soil treatment (soybean), herbicidal effects", "design": "scale not given here", "settings": "dose 1.6 g ai/10a, 21st day after application", "procedure,_shortened": "as §6"}, "[21]": {"test_system": "common lambsquarters (Ch)", "assay": "Test Example 6: crop plant selectivity by upland field soil treatment (soybean), herbicidal effects", "design": "scale not given here", "settings": "dose 1.6 g ai/10a, 21st day after application", "procedure,_shortened": "as §6"}, "green foxtail (Se) [22]": {"test_system": "green foxtail (Se)", "assay": "Test Example 6: crop plant selectivity by upland field soil treatment (soybean), herbicidal effects", "design": "scale not given here", "settings": "dose 1.6 g ai/10a, 21st day after application", "procedure,_shortened": "as §6"}, "pale smartweed (Po) [23]": {"test_system": "pale smartweed (Po)", "assay": "Test Example 6: crop plant selectivity by upland field soil treatment (soybean), herbicidal effects", "design": "scale not given here", "settings": "dose 1.6 g ai/10a, 21st day after application", "procedure,_shortened": "as §6"}, "slender amaranth (Am) [24]": {"test_system": "slender amaranth (Am)", "assay": "Test Example 6: crop plant selectivity by upland field soil treatment (soybean), herbicidal effects", "design": "scale not given here", "settings": "dose 1.6 g ai/10a, 21st day after application", "procedure,_shortened": "as §6"}}, "data": [{"smiles": "CCc1cc2c(-c3cn(C)c(C(F)(F)F)cc3=O)c(F)cc(Cl)c2o1", "note": "[Compound 9-2]", "values": [{"measurement": "Herbicidal effects Ec", "setting": "barnyardgrass (Ec) [1]", "result": 5}, {"measurement": "Herbicidal effects Sc", "setting": "bulrush (Sc)", "result": 5}, {"measurement": "Herbicidal effects Mo", "setting": "monochoria (Mo)", "result": 5}, {"measurement": "Herbicidal effects Di", "setting": "Digitaria ciliaris (Di)", "result": 5}, {"measurement": "Herbicidal effects Ec", "setting": "barnyardgrass (Ec) [2]", "result": 5}, {"measurement": "Herbicidal effects Ch", "setting": "[3]", "result": 5}, {"measurement": "Herbicidal effects Po", "setting": "pale smartweed (Po) [4]", "result": 5}, {"measurement": "Herbicidal effects Ci", "setting": "rice flatsedge (Ci) [5]", "result": 5}, {"measurement": "Herbicidal effects Am", "setting": "slender amaranth (Am) [6]", "result": 5}, {"measurement": "Herbicidal effects Di", "setting": "Diaitaria ciliaris (Di) [7]", "result": 5}, {"measurement": "Herbicidal effects Ec", "setting": "barnyardgrass (Ec) [8]", "result": 5}, {"measurement": "Herbicidal effects Ch", "setting": "[9]", "result": 5}, {"measurement": "Herbicidal effects Po", "setting": "pale smartweed (Po) [10]", "result": 5}, {"measurement": "Herbicidal effects Ci", "setting": "rice flatsedge (Ci) [11]", "result": 5}, {"measurement": "Herbicidal effects Am", "setting": "slender amaranth (Am) [12]", "result": 5}, {"measurement": "Phytotoxicity Go", "setting": "cotton (Go); dose 1.6 g ai/10 a", "result": 0}, {"measurement": "Phytotoxicity Go", "setting": "cotton (Go); dose 6.3 g ai/10 a", "result": 0}, {"measurement": "Herbicidal effects Di", "setting": "Diaitaria ciliaris (Di) [13]; dose 1.6 g ai/10 a", "result": 5}, {"measurement": "Herbicidal effects Di", "setting": "Diaitaria ciliaris (Di) [13]; dose 6.3 g ai/10 a", "result": 5}, {"measurement": "Herbicidal effects Ab", "setting": "China jute (Ab) [14]; dose 1.6 g ai/10 a", "result": 5}, {"measurement": "Herbicidal effects Ab", "setting": "China jute (Ab) [14]; dose 6.3 g ai/10 a", "result": 5}, {"measurement": "Herbicidal effects Ch", "setting": "[15]; dose 1.6 g ai/10 a", "result": 5}, {"measurement": "Herbicidal effects Ch", "setting": "[15]; dose 6.3 g ai/10 a", "result": 5}, {"measurement": "Herbicidal effects Se", "setting": "green foxtail (Se) [16]; dose 1.6 g ai/10 a", "result": 5}, {"measurement": "Herbicidal effects Se", "setting": "green foxtail (Se) [16]; dose 6.3 g ai/10 a", "result": 5}, {"measurement": "Herbicidal effects Po", "setting": "pale smartweed (Po) [17]; dose 1.6 g ai/10 a", "result": 5}, {"measurement": "Herbicidal effects Po", "setting": "pale smartweed (Po) [17]; dose 6.3 g ai/10 a", "result": 5}, {"measurement": "Herbicidal effects Am", "setting": "slender amaranth (Am) [18]; dose 1.6 g ai/10 a", "result": 5}, {"measurement": "Herbicidal effects Am", "setting": "slender amaranth (Am) [18]; dose 6.3 g ai/10 a", "result": 5}, {"measurement": "Phytotoxicity Gl", "setting": "soybean (Gl)", "result": 1}, {"measurement": "Herbicidal effects Di", "setting": "Diaitaria ciliaris (Di) [19]", "result": 5}, {"measurement": "Herbicidal effects So", "setting": "Johnsongrass (So)", "result": 5}, {"measurement": "Herbicidal effects Ab", "setting": "China jute (Ab) [20]", "result": 5}, {"measurement": "Herbicidal effects Ch", "setting": "[21]", "result": 5}, {"measurement": "Herbicidal effects Se", "setting": "green foxtail (Se) [22]", "result": 5}, {"measurement": "Herbicidal effects Po", "setting": "pale smartweed (Po) [23]", "result": 5}, {"measurement": "Herbicidal effects Am", "setting": "slender amaranth (Am) [24]", "result": 5}]}]}
